A short description of data set [1]: Cytotoxicity in PHH natural infection assay (Cell Counting Kit-8). In kind it is cell-based. The following applies: HBV-infected primary human hepatocytes, CCK8. Here is the method:
(§1) Detailed procedures regarding primary human hepatocyte (PHH) HBV natural infection assay are described as below. One tube of frozen PHH (10 million cells) is thawed in 37° C. water bath and then transferred to 20 mL of PHH thawing medium (Sigma, InVitroGRO HT Medium, Cat. S03319) with gently mixing. The cells were then centrifuged at […] for 5 min, the supernatant was discarded and the tube was refilled with 25 mL of PHH plating medium (Sigma, InVitroGRO CP Medium, Cat. S03317). The tube was shaken very gently to re-suspend all cells, and then 50 μl of cells were transferred to each well 384-well collagen I coated plate with appropriate liquid handling equipment, e.g. Integra VIAFLO384 or Agilent Bravo. The cells were then cultured for 24 hours in a cell incubator. For HBV infection, after PHH attachment on the culture plate, the plating medium was removed and replenished with PHH culture medium containing HBV virus. The PHH culture medium was prepared with Dulbecco's Modified Eagle Medium (DMEM)/F12 (1:1 in volume ratio) containing 10% fetal bovine serum (Gibco, Cat. 10099141), 5 ng/mL human epidermal growth factor (Gibco, Cat.PHG031IL), 20 ng/mL dexamethasone (Sigma, Cat.D4902-100 mg), 250 ng/mL human recombinant insulin (Gibco, Cat.41400045) and 100 U/mL penicillin. HBV virus at 200 genome equivalent (GE) per cell with 4% PEG8000 (Sigma, Cat.P1458) containing culture medium were added to the PHH culture medium for infection. The cells were then cultured for 24 hours in cell incubator. Then the cell culture supernatant was removed. The HBV-infected PHH were cultured with sandwich culture method with PHH culture medium containing 1% DMSO and 0.25 mg/mL matrix gel for 72 hours. The supernatant was then refreshed with PHH culture medium containing different concentrations of testing compounds for two times with 72-hour interval. At the end of treatment, the supernatant was collected for viral markers measurements, including HBsAg, HBeAg, HBV DNA and cytotoxicity. HBsAg and HBeAg were detected using alphalisa method using their specific antibodies. For HBV DNA detection, HBV DNA Quantitative Fluorescence Diagnostic Kit (Sansure Biotech Inc.) was used following the manufacture's protocol. Cytotoxicity was determined using Cell Counting Kit-8 (CCK8, Dojindo Molecular Technologies, Inc.).
Background: Formazan colour is commonly taken as a measure of viable cells.

In the next data set the test system is HBeAg. Nature of the data set: PHH natural infection assay, HBeAg (alphalisa). In kind it is cell-based, HBV. The following applies: Hepatitis B virus, Hepatocyte, 72 h, read-out: HBeAg IC50. How it is done: as §1
(§2) The compounds of the present invention were tested for their capacity to inhibit HBsAg and HBeAg as described herein.
Background: Alpha assays give light when donor and acceptor beads are brought close together.

The test system of a further data set is HBsAg. Nature of the data set: PHH natural infection assay, HBsAg (alphalisa). The format is cell-based, HBV. The following applies: Hepatitis B virus, Hepatocyte, 72 h, read-out: HBsAg IC50. How it is done:
as §1, §2

Drawing on patent publication US20230286927A1, “2-PHENYLBENZOTRIAZOL-5-AMINE DERIVATIVES FOR THE TREATMENT AND PROPHYLAXIS OF HEPATITIS B VIRUS (HBV) INFECTION” (priority 2020, published 2023), this text covers CC50 and IC50 for 13 compounds.

Broadly, the CC50 is the concentration that lowers cell viability or growth by half. Read a high CC50 as better tolerance by the cells. The term IC50 denotes the concentration needed to halve the response being measured.

`NC(=S)Nc1ccc2nn(-c3ccc(Cl)cc3)nc2c1` [Example 53, [2-(4-Chlorophenyl)benzotriazol-5-yl]thiourea] gave a CC50 at 144 h in data set [1] greater than 100 µM. The IC50 in the data set with HBeAg stood at 2.87 µM; in the data set on HBsAg, 3.37 µM.

On to `CNC(=S)Nc1ccc2nn(-c3ccc(Cl)cc3)nc2c1` [Example 54, 1-[2-(4-chlorophenyl)benzotriazol-5-yl]-3-methyl-thiourea], for which, in data set [1], the CC50 at 144 h is greater than 100 µM. The IC50 was determined as 4.59 µM in the data set on HBeAg and 2.68 µM in the data set on HBsAg.

`CC(=O)NC(=S)Nc1ccc2nn(-c3ccc(Cl)cc3)nc2c1` [Example 55, N-[[2-(4-chlorophenyl)benzotriazol-5-yl]carbamothioyl]acetamide] registered a CC50 at 144 h in data set [1] greater than 100 µM. In addition, the IC50 in the data set with HBeAg was determined as 5.1 µM; in the data set on HBsAg, 2.97 µM.

Turning to `O=C(NC(=S)Nc1ccc2nn(-c3ccc(Cl)cc3)nc2c1)C1CCCC1` [Example 56, N-[[2-(4-chlorophenyl)benzotriazol-5-yl]carbamothioyl]cyclopentanecarboxamide], in data set [1], the CC50 at 144 h is greater than 100 µM. In addition, the results for the 50% inhibitory concentration (IC50) with HBeAg and with HBsAg were 7.5 µM and 3.45 µM, respectively.

The compound `CC(C)C(=O)NC(=S)Nc1ccc2nn(-c3ccc(Cl)cc3)nc2c1` [Example 57, N-[[2-(4-chlorophenyl)benzotriazol-5-yl]carbamothioyl]-2-methyl-propanamide] registered a CC50 at 144 h in data set [1] greater than 100 µM. Also, the IC50 with HBeAg was 3.72 µM; in the data set on HBsAg it was 2.5 µM.

Compound `O=C(NC(=S)Nc1ccc2nn(-c3ccc(Cl)cc3)nc2c1)c1ccccc1` [Example 58, N-[[2-(4-chlorophenyl)benzotriazol-5-yl]carbamothioyl]benzamide] returned a CC50 at 144 h in data set [1] greater than 100 µM. Also, the results for the concentration for half-maximal inhibition (IC50) with HBeAg and in the data set with HBsAg were 1.27 µM and 1.17 µM, respectively.

For the compound `Cc1cc2nn(-c3ccc(Cl)cc3)nc2cc1NC(=S)NC(=O)c1ccccc1` [Example 59, N-[[2-(4-chlorophenyl)-6-methyl-benzotriazol-5-yl]carbamothioyl]benzamide], the CC50 at 144 h in data set [1] is greater than 100 µM. Moreover, the values for the 50% inhibitory concentration (IC50) with HBeAg and with HBsAg were 3.04 µM and 1.11 µM, respectively.

As for `Cc1cc2nn(-c3ccc(Cl)cc3)nc2cc1NC(N)=S` [Example 60, [2-(4-Chlorophenyl)-6-methyl-benzotriazol-5-yl]thiourea], in data set [1], the cytotoxic concentration (CC50) at 144 h was greater than 100 µM. Also, the IC50 in the data set with HBeAg was 2.31 µM; with HBsAg it was 2.28 µM.

Compound `CN(C)C(=S)Nc1ccc2nn(-c3ccc(Cl)cc3)nc2c1` [Example 61, 3-[2-(4-Chlorophenyl)benzotriazol-5-yl]-1,1-dimethyl-thiourea] showed a half-maximal cytotoxic concentration (CC50) at 144 h in data set [1] greater than 100 µM. Besides, the 50% inhibitory concentration (IC50) with HBeAg was determined as 1.22 µM; in the data set on HBsAg it was 0.79 µM.

`CC(C)c1csc(Nc2ccc3nn(-c4ccc(Cl)cc4)nc3c2)n1` [Example 62, N-[2-(4-chlorophenyl)benzotriazol-5-yl]-4-isopropyl-thiazol-2-amine] had a CC50 at 144 h in data set [1] greater than 100 µM. In addition, the results for the IC50 in the data set with HBeAg and in the data set with HBsAg were 5.8 µM and 3.8 µM, respectively.

Consider `Clc1ccc(-n2nc3ccc(Nc4nc(-c5ccccc5)cs4)cc3n2)cc1` [Example 63, N-[2-(4-chlorophenyl)benzotriazol-5-yl]-4-phenyl-thiazol-2-amine], for which the CC50 at 144 h in data set [1] was greater than 100 µM. Besides, the IC50 stood at 1.34 µM in the data set on HBeAg and 1.52 µM with HBsAg.

Consider `Cc1csc(Nc2ccc3nn(-c4ccc(Cl)cc4)nc3c2)n1` [Example 64, N-[2-(4-chlorophenyl)benzotriazol-5-yl]-4-methyl-thiazol-2-amine], for which the CC50 at 144 h in data set [1] was greater than 100 µM. In addition, the results for the concentration for half-maximal inhibition (IC50) in the data set on HBeAg and in the data set with HBsAg were 3.04 µM and 1.42 µM, respectively.

`Cc1nc(Nc2ccc3nn(-c4ccc(Cl)cc4)nc3c2)sc1C` [Example 65, N-[2-(4-chlorophenyl)benzotriazol-5-yl]-4,5-dimethyl-thiazol-2-amine] came in with a cytotoxic concentration (CC50) at 144 h in data set [1] greater than 100 µM. Also, the IC50 in the data set with HBeAg is 2.91 µM; in the data set on HBsAg, 2.67 µM.
